Results: US20240101958A1, “NOVEL HUMAN ERYTHROID PROGENITOR CELL LINE HIGHLY […] B19 INFECTION AND USES THEREOF” (priority 2020, published 2024)

Legend:
B19V = B19V infection of hematopoietic cell lines, VP2 mRNA by RT-qPCR normalized to beta-actin; conditions: for decrease of B19V infection by a factor: UT7/Epo-STI cells treated two days before B19V infection (JQ1 0.5 μM, TGF-β 2 ng/mL), 72 h post-inoculation
Method: Three distinct UT-7/Epo cell lines were used: 1) UT-7/Epo-S1, a subclone of UT-7/Epo (16), was obtained from Dr Kazuo Sugamura (Tohoku University Graduate School of Medicine, Japan). 2) UT-7/Epo and UT7/Epo-Cl3, a subclone isolated from UT-7/Epo3) UT7/Epo-STI cells were derived from UT-7/GM cell line and were maintained at low passage, with stringency for erythroid features. UT-7 cells were maintained at 37° C., under an atmosphere containing 5% CO2, in alpha minimum essential medium (αMEM) supplemented with 10% fetal calf serum (FCS), 2 mM L-glutamine (Hyclone), 100 U/mL penicillin, 100 μg/mL streptomycin and 2 U/mL recombinant human Erythropoietin (rh-Epo, Euromedex, RC213-15). Where specified, 0.5 μM JQ1 (Sigma-Aldrich, France) or 2 ng/mL TGF-β (Peprotech, France) was added to the culture medium for two days before B19V infection. TF1 (12) and TF1-ER erythroleukemia cells were maintained in Roswell Park Memorial Institute (RPM!) 1640 medium supplemented with 10% FCS, 2 mM L-glutamine (Hyclone), 100 U/mL penicillin, 100 μg/mL streptomycin and 2 U/mL rh-Epo or 5 ng/mL human granulocyte macrophage colony-stimulating factor (GM-CSF, Peprotech).
Plasma samples containing high titers of infectious B19V from asymptomatic blood donors were provided by the Etablissement Français du Sang (EFS). Plasma samples were determined to be negative for both B19V IgG and IgM, with a viral titer of 10^11 B19V DNA genome equivalent (ge)/mL. Briefly, cells were maintained in exponential growth condition by dilution to 0.3×10^6 cells/mL the day before infection. On the day of infection, cells were washed and diluted in FCS-free medium without Epo, at a density of 10·10^6 cells/mL. B19V inoculation was carried out in a 96-well plate, with 10 μL of cell suspension (10^5 cells) and 50 μL of a 100-fold dilution of B19V plasma (10^9 ge/mL), corresponding to a mean of 500 ge/cell. The cells were then incubated at 4° C. for 2 h, and then at 37° C., for 1 h, under an atmosphere containing 5% CO2. We added 140 μL of complete medium and maintained the cells in culture until 72 h. Where specified, we added chloroquine (CQ) to the complete medium, at a final concentration of 25 μM. Cell viability was assessed by trypan blue exclusion test (0.4% in PBS, Thermo Fisher Scientific), by counting blue and total cells under a microscope, with a hemocytometer. After correction for the dilution factor, viability was calculated as follows: % viable cells=[1−(number of blue cells/number of total cell)]×100. At 24, 48 or 72 h post infection (hpi), cells were centrifuged (8 mins at 300×g), supernatants were discarded and cell pellets were frozen at −80° C. until analysis.
Total RNA was extracted from cell pellets with the RNeasy 96 QIAcubeHT kit and a QIAcubeHT machine, according to the manufacturer's instructions. The extraction step included DNase treatment for 15 minutes, to decrease the risk of genomic DNA amplification during PCR. Real-time reverse transcription-quantitative PCR (RT-qPCR) was performed with the Taqman Fast Virus one-step PCR kit (Applied Biosystems). […] For control and normalization with respect to the number of cells, we used a duplex strategy. […] Reactions were performed on 5 μL of extracted RNA with the QuantStudio 3 PCR system and. The reaction began with reverse transcription at 48° C. for 15 mins, followed by inactivation of the reverse transcriptase and activation of the polymerase by heating at 95° C. for 10 mins, followed by 40 cycles of 15s at 95° C. and 30 s at 60° C. […]

B19 = assay: Production of B19 genome copies equivalent per mL of cell culture, qPCR; type: cell-based, Human Parvovirus B19; conditions: UT7/Epo-E2 cell line after chloroquine treatment, 96 h post infection
Method: Cells (day 8 CD36^+EPC, UT7/Epo-S1, UT7/Epo-STI and UT7/Epo-E2) were inoculated with B19. 24 h after inoculation (24 hpi), cells were washed. 3 days later (96 hpi), supernatant was collected, DNA was isolated and B19 DNA was quantified by qPCR according to a B19 DNA standard (GenBank accession no. AY386330). Results are means±SD of 3 independent experiments. For CD36+ EPC, results are means±SD of three day-8 erythroid culture from CD34+ hematopoietic stem cells isolated from 3 different umbilical cord blood.
B19 genome production (FIG. 12) and transcription (FIG. 13) was evaluated at 96h post infection in CD36+EPC cells (day 8) and UT7 cell lines with or without addition of chloroquine (FIG. 13A and B). 96 h post infection, DNA was extracted from an aliquot of 1 mL of cell culture and RNA from cell pellets. B19 genome production was evaluated by qPCR and genome equivalent (GEq)/mL was calculated according to a B19 genome calibration curve. Transcription was analysed by RT-qPCR as previously described. […] UT7/Epo-E2 cell line presents the highest quantity of B19 genome equivalent produced, with at least 7.65×10^7 GEq/mL after chloroquine treatment. […]

**Q.** For `CCN(CC)CCCC(C)Nc1ccnc2cc(Cl)ccc12` (racemic) [Chloroquine, (RS)-N-(7-chloroquinolin-4-yl)-N,N-diéthyl-pentane-1,4-diamine], which VP2 expression (B19V; TF1 and TF1-ER cells, under GM-CSF or Epo, with or without chloroquine treatment) is on record?
**A.** Its VP2 expression is “undetectable”.

**Q.** And the “enhancement of UT7/Epo-S1 sensitivity to B19V (relative B19 mRNA expression)” value (B19V; UT7/Epo-S1 cells, chloroquine 25 μM, 72 h post-infection)?
**A.** The value was 5 fold.

**Q.** What about the “relative B19 mRNA level (VP2), UT7/Epo-S1 without chloroquine set to 1” value (B19V; UT7/Epo-STI cells + chloroquine 25 μM, 72 h post-infection) of the same molecule?
**A.** Its value is 25.8+4.9.

**Q.** What about the “quantity of B19 genome equivalent produced” value (B19) of the same molecule?
**A.** The value was “at least 7.65×10^7 GEq/mL”.

**Q.** For “TGF-B: hormonal induction of erythroid differentiation (Peprotech)”, which “decrease of B19V infection by a factor” value (B19V) is on record?
**A.** Its value is “about 10”.

**Q.** How did the “decrease of B19V infection by a factor” value (B19V) turn out when `Cc1sc2c(c1C)C(c1ccc(Cl)cc1)=N[C@@H](CC(=O)OC(C)(C)C)c1nnc(C)n1-2` [JQ1] was run?
**A.** Its value is “about 10”.
